# Data reported in ChEMBL document CHEMBL1137136, “Change in liver and plasma ceramides during D-galactosamine-induced acute hepatic injury by LC-MS/MS” (2004).
# “And” between values parts separate entries of the source, which are not always exact repeats. Equal values may be shown once.
# Tests used:
# Assay type in all cases: functional
# [1] = tested on: Rattus norvegicus; assay: Concentration of C22:0 ceramide in liver of D-galactosamine treated rats after 18 hr at dose of 1 g/kg intraperitoneally
# [2] = tested on: Rattus norvegicus; assay: Concentration of C22:1 ceramide in liver of D-galactosamine treated rats after 24 hr at dose of 1 g/kg intraperitoneally
# [3] = tested on: Rattus norvegicus; assay: Concentration of C24:1 ceramide in plasma of D-galactosamine treated rats after 24 hr at dose of 1 g/kg intraperitoneally
# [4] = tested on: Rattus norvegicus; assay: Concentration of C22:2 ceramide in plasma of D-galactosamine treated rats after 24 hr at dose of 1 g/kg intraperitoneally
# [5] = tested on: Rattus norvegicus; assay: Concentration of C24:2 ceramide in plasma of D-galactosamine treated rats after 18 hr at dose of 1 g/kg intraperitoneally
# [6] = tested on: Rattus norvegicus; assay: Concentration of C22:2 ceramide in plasma of D-galactosamine treated rats after 18 hr at dose of 1 g/kg intraperitoneally
# [7] = tested on: Rattus norvegicus; assay: Concentration of C22:1 ceramide in liver of D-galactosamine treated rats after 18 hr at dose of 1 g/kg intraperitoneally
# [8] = tested on: Rattus norvegicus; assay: Concentration of C18:0 ceramide in liver of D-galactosamine treated rats after 24 hr at dose of 1 g/kg intraperitoneally
# [9] = tested on: Rattus norvegicus; assay: Plasma GPT level was observed after 18 hr of D-galactosamine administration at 1 g/kg intraperitoneally
# [10] = tested on: Rattus norvegicus; assay: Concentration of C18:0 ceramide in plasma of D-galactosamine treated rats after 18 h at dose of 1 g/kg intraperitoneally
# [11] = tested on: Rattus norvegicus; assay: Concentration of C20:0 ceramide in liver of D-galactosamine treated rats after 24 hr at dose of 1 g/kg intraperitoneally
# [12] = tested on: Rattus norvegicus; assay: Concentration of C16:0 ceramide in plasma of D-galactosamine treated rats after 24 hr at dose of 1 g/kg intraperitoneally
# [13] = tested on: Rattus norvegicus; assay: Concentration of C20:0 ceramide in plasma of D-galactosamine treated rats after 24 hr at dose of 1 g/kg intraperitoneally
# [14] = tested on: Rattus norvegicus; assay: Concentration of C24:0 ceramide in plasma of D-galactosamine treated rats after 18 hr at dose of 1 g/kg intraperitoneally
# [15] = tested on: Rattus norvegicus; assay: Concentration of C20:0 ceramide in liver of D-galactosamine treated rats after 18 h at dose of 1 g/kg intraperitoneally
# [16] = tested on: Rattus norvegicus; assay: Concentration of C24:0 ceramide in liver of D-galactosamine treated rats after 18 hr at dose of 1 g/kg intraperitoneally
# [17] = tested on: Rattus norvegicus; assay: Concentration of C16:0 ceramide in liver of D-galactosamine treated rats after 24 hr at dose of 1 g/kg intraperitoneally
# [18] = tested on: Rattus norvegicus; assay: Concentration of C24:1 ceramide in liver of D-galactosamine treated rats after 18 hr at dose of 1 g/kg intraperitoneally
# [19] = tested on: Rattus norvegicus; assay: Concentration of C24:0 ceramide in liver of D-galactosamine treated rats after 24 hr at dose of 1 g/kg intraperitoneally
# [20] = tested on: Rattus norvegicus; assay: Concentration of C24:2 ceramide in liver of D-galactosamine treated rats after 24 hr at dose of 1 g/kg intraperitoneally
# [21] = tested on: Rattus norvegicus; assay: Concentration of C22:2 ceramide in liver of D-galactosamine treated rats after 24 hr at dose of 1 g/kg intraperitoneally
# [22] = tested on: Rattus norvegicus; assay: Concentration of C18:0 ceramide in plasma of D-galactosamine treated rats after 24 hr at dose of 1 g/kg intraperitoneally
# [23] = tested on: Rattus norvegicus; assay: Plasma GPT level was observed after 24 hr of D-galactosamine administration at 1 g/kg intraperitoneally
# [24] = tested on: Rattus norvegicus; assay: Concentration of C24:0 ceramide in plasma of D-galactosamine treated rats after 24 hr at dose of 1 g/kg intraperitoneally
# [25] = tested on: Rattus norvegicus; assay: Concentration of C16:0 ceramide in plasma of D-galactosamine treated rats after 18 h at dose of 1 g/kg intraperitoneally
# [26] = tested on: Rattus norvegicus; assay: Plasma GOT level was observed after 24 hr of D-galactosamine administration at 1 g/kg intraperitoneally
# [27] = tested on: Rattus norvegicus; assay: Concentration of C18:0 ceramide in liver of D-galactosamine treated rats after 18 hr at dose of 1 g/kg intraperitoneally
# [28] = tested on: Rattus norvegicus; assay: Concentration of C22:1 ceramide in plasma of D-galactosamine treated rats after 18 hr at dose of 1 g/kg intraperitoneally
# [29] = tested on: Rattus norvegicus; assay: Concentration of C22:2 ceramide in liver of D-galactosamine treated rats after 18 hr at dose of 1 g/kg intraperitoneally
# [30] = tested on: Rattus norvegicus; assay: Concentration of C24:1 ceramide in liver of D-galactosamine treated rats after 24 hr at dose of 1 g/kg intraperitoneally
# [31] = tested on: Rattus norvegicus; assay: Concentration of C20:0 ceramide in plasma of D-galactosamine treated rats after 18 hr at dose of 1 g/kg intraperitoneally
# [32] = tested on: Rattus norvegicus; assay: Concentration of C22:0 ceramide in liver of D-galactosamine treated rats after 24 hr at dose of 1 g/kg intraperitoneally
# [33] = tested on: Rattus norvegicus; assay: Concentration of C16:0 ceramide in liver of D-galactosamine treated rats after 18 hr at dose of 1 g/kg intraperitoneally
# [34] = tested on: Rattus norvegicus; assay: Plasma GOT level was observed after 18 hr of D-galactosamine administration at 1 g/kg intraperitoneally
# [35] = tested on: Rattus norvegicus; assay: Concentration of C24:1 ceramide in plasma of D-galactosamine treated rats after 18 hr at dose of 1 g/kg intraperitoneally
# [36] = tested on: Rattus norvegicus; assay: Concentration of C24:2 ceramide in liver of D-galactosamine treated rats after 18 hr at dose of 1 g/kg intraperitoneally
smiles,measurement,setting,value
N[C@H]1C(O)O[C@H](CO)[C@@H](O)[C@@H]1O (stereo partly specified) [GLUCOSAMINE],Activity,[1],37.8 nmol/g tissue
same,Activity,[2],7.1 nmol/g tissue
same,Activity,[3],13.83 nmol/g tissue
same,Activity,[4],2.33 nmol/g tissue
same,Activity,[5],0.98 nmol/g tissue and 1.94 nmol/g tissue
same,Activity,[6],2.57 nmol/g tissue
same,Activity,[7],4.6 nmol/g tissue
same,Activity,[8],11.5 nmol/g tissue
same,Activity,[9],1208 Karmen
same,Activity,[10],0.18 nmol/g tissue
same,Activity,[11],5.6 nmol/g tissue
same,Activity,[12],3.13 nmol/g tissue
same,Activity,[13],0.65 nmol/g tissue
same,Activity,[14],6.31 nmol/g tissue
same,Activity,[15],3.9 nmol/g tissue
same,Activity,[16],173.7 nmol/g tissue
same,Activity,[17],36.2 nmol/g tissue
same,Activity,[18],59.6 nmol/g tissue
same,Activity,[19],166.3 nmol/g tissue
same,Activity,[20],12.4 nmol/g tissue
same,Activity,[21],7 nmol/g tissue
same,Activity,[22],0.9 nmol/g tissue
same,Activity,[23],7280 Karmen
same,Activity,[24],26.31 nmol/g tissue
same,Activity,[25],1.06 nmol/g tissue
same,Activity,[26],18480 Karmen
same,Activity,[27],11.1 nmol/g tissue
same,Activity,[28],5.45 nmol/g tissue
same,Activity,[29],4.8 nmol/g tissue
same,Activity,[30],67.2 nmol/g tissue
same,Activity,[31],0.42 nmol/g tissue
same,Activity,[32],35.6 nmol/g tissue
same,Activity,[33],43.9 nmol/g tissue
same,Activity,[34],2516 Karmen
same,Activity,[35],5.78 nmol/g tissue
same,Activity,[36],12.4 nmol/g tissue
